Reference: patent EP3262942A1, “SELENODIARYLS FOR USE AS MICROBICIDE OR AS MEDICINE” (Evonik Degussa GmbH, priority 2016, dated 2018)

How the values were obtained:
Candida albicans = assay: Growth test in microtiter plates, HA medium, 24 h, visual evaluation; type: cell-based; set-up: key: +: kein Wachstum im Vergleich zur Wachstumskontrolle; -: Wachstum wie Wachstumskontrolle
Mucor miehei = assay: as above; type: cell-based; set-up: key to Aktivität gegenüber M. miehei: +: kein Wachstum im Vergleich zur Wachstumskontrolle; -: Wachstum wie Wachstumskontrolle
Penicillium notatum = assay: as above; type: cell-based; set-up: key: +: kein Wachstum im Vergleich zur Wachstumskontrolle; -: Wachstum wie Wachstumskontrolle
Paecilomyces variotii = assay: as above; type: cell-based; set-up: key: +: kein Wachstum im Vergleich zur Wachstumskontrolle; -: Wachstum wie Wachstumskontrolle
M. grisea H2O = assay: microbe, parasite or virus in culture; type: cell-based, Magnaporthe grisea; settings: Pyricularia grisea, H2O, 24 h, read-out: Aktivität gegenüber M. grisea H2O
Botrytis cinerea = assay: microbe, parasite or virus in culture; type: cell-based; settings: for inhibition of growth at 5 µg/mL / inhibition of growth at 10 µg/mL / inhibition of growth at 25 µg/mL / inhibition of growth at 50 µg/mL: Botrytis cinerea, 24 h, read-out: Aktivität gegenüber B. cinerea
P. infestans = assay: microbe, parasite or virus in culture; type: cell-based, Phytophthora infestans; settings: Phytophthora infestans, 24 h, read-out: Aktivität gegenüber P. infestans
M. grisea CM = assay: microbe, parasite or virus in culture; type: cell-based, Magnaporthe grisea; settings: Pyricularia grisea, 24 h, read-out: Aktivität gegenüber M. grisea CM
Lepidium sativum = assay: Crop plant growth test, seeds on filter discs, 4 days, visual evaluation; type: in vivo
Outline: (§1)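 Compounds dried from DMSO onto filter discs; about 12 seeds per well with 200 µl sterile tap water, incubated 4 days in a humid chamber under 16 h light/8 h dark. Visual scoring: + means at least 75 % growth inhibition versus control, − means less than 75 %.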

Setaria italica = assay: as above; type: in vivo
Outline: as §1

M. grisea = type: cell-based, Magnaporthe grisea; settings: medium (H2O or CM) not stated
[1] = system: alle getesteten Pathogene; type: cell-based; settings: 5-50 µg/mL

SMILES	Aktivität gegenüber C. albicans (Candida albicans; 10µg/mL)	Aktivität gegenüber C. albicans (Candida albicans; 50µg/mL)	Aktivität gegenüber M. miehei (Mucor miehei; 10µg/mL)	Aktivität gegenüber M. miehei (Mucor miehei; 50µg/mL)	Aktivität gegenüber P. notatum (Penicillium notatum; 10µg/mL)	Aktivität gegenüber P. notatum (Penicillium notatum; 50µg/mL)	Aktivität gegenüber P. variotii (Paecilomyces variotii; 10µg/mL)	Aktivität gegenüber P. variotii (Paecilomyces variotii; 50µg/mL)	inhibition of growth at 5 µg/mL (M. grisea H2O)	inhibition of growth at 10 µg/mL (M. grisea H2O)	inhibition of growth at 25 µg/mL (M. grisea H2O)	inhibition of growth at 50 µg/mL (M. grisea H2O)	inhibition of growth at 5 µg/mL (Botrytis cinerea)	inhibition of growth at 10 µg/mL (Botrytis cinerea)	inhibition of growth at 25 µg/mL (Botrytis cinerea)	inhibition of growth at 50 µg/mL (Botrytis cinerea)	inhibition of growth at 5 µg/mL (P. infestans)	inhibition of growth at 10 µg/mL (P. infestans)	inhibition of growth at 25 µg/mL (P. infestans)	inhibition of growth at 50 µg/mL (P. infestans)	other results
Cc1cc(C)c(O)c([Se]c2cc(C)cc(C)c2O)c1 [Verbindung 12, Bis(3,5-dimethyl-2-hydroxyphenyl)selen]	-	-	-	-	-	-	-	-	0 to 25%	0 to 25%	0 to 25%	0 to 25%	0 to 25%	0 to 25%	0 to 25%	0 to 25%	0 to 25%	> 75%	> 75%	> 75%	inhibition of growth at 5 µg/mL (M. grisea CM): > 75%; inhibition of growth at 10 µg/mL (M. grisea CM): > 75%; inhibition of growth at 25 µg/mL (M. grisea CM): > 75%; inhibition of growth at 50 µg/mL (M. grisea CM): > 75%; Aktivität gegenüber Nutzpflanzen: L. sativum (Lepidium sativum; 10µg/R): - (weniger als 75 % Wachstumshemmung im Vergleich zur Kontrolle); Aktivität gegenüber Nutzpflanzen: L. sativum (Lepidium sativum; 20µg/R): - (weniger als 75 % Wachstumshemmung im Vergleich zur Kontrolle); Aktivität gegenüber Nutzpflanzen: L. sativum (Lepidium sativum; 50µg/R): - (weniger als 75 % Wachstumshemmung im Vergleich zur Kontrolle); Aktivität gegenüber Nutzpflanzen: S. italica (Setaria italica; 10µg/R): - (weniger als 75 % Wachstumshemmung im Vergleich zur Kontrolle); Aktivität gegenüber Nutzpflanzen: S. italica (Setaria italica; 20µg/R): - (weniger als 75 % Wachstumshemmung im Vergleich zur Kontrolle); Aktivität gegenüber Nutzpflanzen: S. italica (Setaria italica; 50µg/R): - (weniger als 75 % Wachstumshemmung im Vergleich zur Kontrolle); Aktivität gegenüber M. grisea (M. grisea): hohe Aktivität
Cc1cc(C(C)(C)C)cc([Se]c2cc(C(C)(C)C)cc(C)c2O)c1O [Verbindung 13, Di(5-tert-butyl-2-hydroxy-3-methylphenyl)selen]	-	-	-	-	-	-	-	-	> 75%	> 75%	> 75%	> 75%	0 to 25%	0 to 25%	0 to 25%	0 to 25%	0 to 25%	0 to 25%	0 to 25%	0 to 25%	inhibition of growth at 5 µg/mL (M. grisea CM): > 75%; inhibition of growth at 10 µg/mL (M. grisea CM): > 75%; inhibition of growth at 25 µg/mL (M. grisea CM): > 75%; inhibition of growth at 50 µg/mL (M. grisea CM): > 75%; Aktivität gegenüber Nutzpflanzen: L. sativum (Lepidium sativum; 10µg/R): - (weniger als 75 % Wachstumshemmung im Vergleich zur Kontrolle); Aktivität gegenüber Nutzpflanzen: L. sativum (Lepidium sativum; 20µg/R): - (weniger als 75 % Wachstumshemmung im Vergleich zur Kontrolle); Aktivität gegenüber Nutzpflanzen: L. sativum (Lepidium sativum; 50µg/R): - (weniger als 75 % Wachstumshemmung im Vergleich zur Kontrolle); Aktivität gegenüber Nutzpflanzen: S. italica (Setaria italica; 10µg/R): - (weniger als 75 % Wachstumshemmung im Vergleich zur Kontrolle); Aktivität gegenüber Nutzpflanzen: S. italica (Setaria italica; 20µg/R): - (weniger als 75 % Wachstumshemmung im Vergleich zur Kontrolle); Aktivität gegenüber Nutzpflanzen: S. italica (Setaria italica; 50µg/R): - (weniger als 75 % Wachstumshemmung im Vergleich zur Kontrolle); Aktivität gegenüber M. grisea (M. grisea): hohe Aktivität
Oc1c(Cl)cc(F)cc1[Se]c1cc(F)cc(Cl)c1O [Verbindung 24, Bis(3-chlor-5-fluor-2-hydroxyphenyl)selen]	+	+	+	+	+	+	+	-	> 75%	> 75%	> 75%	> 75%	> 75%	> 75%	> 75%	> 75%	> 75%	> 75%	> 75%	> 75%	mikrobizide Wirksamkeit gegenüber B. cinerea (Botrytis cinerea): mikrobizide Wirksamkeit; inhibition of growth at 5 µg/mL (M. grisea CM): > 75%; inhibition of growth at 10 µg/mL (M. grisea CM): > 75%; inhibition of growth at 25 µg/mL (M. grisea CM): > 75%; inhibition of growth at 50 µg/mL (M. grisea CM): > 75%; Aktivität gegenüber Nutzpflanzen: L. sativum (Lepidium sativum; 10µg/R): - (weniger als 75 % Wachstumshemmung im Vergleich zur Kontrolle); Aktivität gegenüber Nutzpflanzen: L. sativum (Lepidium sativum; 20µg/R): + (mind. 75 % Wachstumshemmung im Vergleich zur Kontrolle); Aktivität gegenüber Nutzpflanzen: L. sativum (Lepidium sativum; 50µg/R): - (weniger als 75 % Wachstumshemmung im Vergleich zur Kontrolle); Effekt auf L. sativum (Lepidium sativum; […]): deutlichen negativen Effekt; Aktivität gegenüber Nutzpflanzen: S. italica (Setaria italica; 10µg/R): - (weniger als 75 % Wachstumshemmung im Vergleich zur Kontrolle); Aktivität gegenüber Nutzpflanzen: S. italica (Setaria italica; 20µg/R): + (mind. 75 % Wachstumshemmung im Vergleich zur Kontrolle); Aktivität gegenüber Nutzpflanzen: S. italica (Setaria italica; 50µg/R): - (weniger als 75 % Wachstumshemmung im Vergleich zur Kontrolle); Effekt auf S. italica (Setaria italica; […]): deutlichen negativen Effekt; Aktivität im Wachstums- und Keimungshemmungstest gegen die getesteten Pathogene [1]: durchgehende Aktivität gegen alle Pathogene
COc1cc(C)cc([Se]c2cc(C)cc(OC)c2O)c1O [Verbindung 20, Bis(2-hydroxy-3-methoxy-5-methylphenyl)selen]	-	-	-	-	-	-	-	-	25 to 50%	> 75%	> 75%	> 75%	0 to 25%	0 to 25%	0 to 25%	0 to 25%	0 to 25%	0 to 25%	> 75%	> 75%	inhibition of growth at 5 µg/mL (M. grisea CM): 25 to 50%; inhibition of growth at 10 µg/mL (M. grisea CM): > 75%; inhibition of growth at 25 µg/mL (M. grisea CM): > 75%; inhibition of growth at 50 µg/mL (M. grisea CM): > 75%; Aktivität gegenüber Nutzpflanzen: L. sativum (Lepidium sativum; 10µg/R): - (weniger als 75 % Wachstumshemmung im Vergleich zur Kontrolle); Aktivität gegenüber Nutzpflanzen: L. sativum (Lepidium sativum; 20µg/R): - (weniger als 75 % Wachstumshemmung im Vergleich zur Kontrolle); Aktivität gegenüber Nutzpflanzen: L. sativum (Lepidium sativum; 50µg/R): - (weniger als 75 % Wachstumshemmung im Vergleich zur Kontrolle); Aktivität gegenüber Nutzpflanzen: S. italica (Setaria italica; 10µg/R): - (weniger als 75 % Wachstumshemmung im Vergleich zur Kontrolle); Aktivität gegenüber Nutzpflanzen: S. italica (Setaria italica; 20µg/R): - (weniger als 75 % Wachstumshemmung im Vergleich zur Kontrolle); Aktivität gegenüber Nutzpflanzen: S. italica (Setaria italica; 50µg/R): - (weniger als 75 % Wachstumshemmung im Vergleich zur Kontrolle); Aktivität im Wachstums- und Keimungshemmungstest gegen die getesteten Pathogene [1]: fungizider Effekt
Cc1cc(C(C)C)c(O)c([Se]c2c(C)c(C)cc(C(C)C)c2O)c1C [Verbindung 18, Bis(5,6-dimethyl-2-hydroxy-3-isopropylphenyl)selen]	-	-	-	-	-	-	-	-	0 to 25%	0 to 25%	0 to 25%	0 to 25%	0 to 25%	0 to 25%	0 to 25%	0 to 25%	0 to 25%	0 to 25%	0 to 25%	0 to 25%	inhibition of growth at 5 µg/mL (M. grisea CM): 0 to 25%; inhibition of growth at 10 µg/mL (M. grisea CM): 0 to 25%; inhibition of growth at 25 µg/mL (M. grisea CM): 0 to 25%; inhibition of growth at 50 µg/mL (M. grisea CM): 0 to 25%; Aktivität gegenüber Nutzpflanzen: L. sativum (Lepidium sativum; 10µg/R): - (weniger als 75 % Wachstumshemmung im Vergleich zur Kontrolle); Aktivität gegenüber Nutzpflanzen: L. sativum (Lepidium sativum; 20µg/R): - (weniger als 75 % Wachstumshemmung im Vergleich zur Kontrolle); Aktivität gegenüber Nutzpflanzen: L. sativum (Lepidium sativum; 50µg/R): - (weniger als 75 % Wachstumshemmung im Vergleich zur Kontrolle); Aktivität gegenüber Nutzpflanzen: S. italica (Setaria italica; 10µg/R): - (weniger als 75 % Wachstumshemmung im Vergleich zur Kontrolle); Aktivität gegenüber Nutzpflanzen: S. italica (Setaria italica; 20µg/R): - (weniger als 75 % Wachstumshemmung im Vergleich zur Kontrolle); Aktivität gegenüber Nutzpflanzen: S. italica (Setaria italica; 50µg/R): - (weniger als 75 % Wachstumshemmung im Vergleich zur Kontrolle); Aktivität im Wachstums- und Keimungshemmungstest gegen die getesteten Pathogene [1]: weder im Wachstums- noch im Keimungshemmungstest im verwendeten Konzentrationsbereich eine entsprechende Aktivität
